Experimental data taken from patent US9737487B2, “Cyclodextrin compositions encapsulating a selective ATP inhibitor and uses thereof” (The Johns Hopkins University, priority 2014, dated 2017).
Counter-ions that a name gives are not always drawn.

Legend:
[1] = test system: orthotopic MiaPaCa-2 tumors; assay: Orthotopic lucMiaPaCa-2 xenograft, systemic treatment with BLI follow-up, survival and necropsy (Example 6); format: in vivo, mice
Method: Male athymic nude mice (body weight, 20-25 g; 4 weeks old; Crl:NU (NCr)-Fox1^nu; Charles River Laboratory, Germantown, Md., USA) were used in accordance with institutional guidelines under approved Animal Care and Use Committee protocols. Mice were maintained in laminar flow rooms at constant temperature and humidity with food and water given ad libitum. Orthotopic xenograft tumors were generated by implantation of 1.5×10^6 lucMiaPaCa-2, suspended in 50 μl PBS, into the tail of the pancreas in anesthetized mice. To accomplish this, mice were placed into a clean anesthesia induction chamber (oxygen flow rate, 1 liter/minute; isoflurane concentration of 3-4%). Upon loss of the righting reflex, animals were placed on the surgical procedure surface, where a nose cone was used to maintain anesthesia (oxygen flow, 0.8 liters/minute; Isoflurane concentration, 1.5-2%). A small, left abdominal flank incision was made, and the pancreas was exteriorized to inject the cell solution using a 30 G Hamilton syringe. A successful subcapsular intrapancreatic injection was identified by the appearance of a fluid bleb without intraperitoneal leakage. The abdominal cavity was closed with a double-layer of non-absorbable suture material (Kim et al. (2009) Nat. Protocol. 4:1670-1680).
Tumor viability was confirmed via in vivo bioluminescence imaging (BLI) on day 7 after the surgical implantation. Anesthetized tumor-bearing mice were injected intraperitoneally with D-luciferin 150 mg/kg and optically imaged 5 minutes later using the IVIS 200 system (Xenogen). The pseudocolor image representing the spatial distribution of photons was overlaid on a previously acquired grayscale photographic image. A region of interest (ROI) was created to include the optical tumor image. Signal intensity was quantified within the ROI in photons/second/squared centimeter/steradian (p/s/cm2/Sr) after a 10-second exposure using Living Image software (Xenogen). Additionally, orthotopic growth of the tumors was confirmed prior to treatment using small-animal ultrasound imaging (USI). In brief, anesthetized mice were subjected to examination using the VEVO2100 (Visual Sonics Inc., Toronto, Canada, kindly provided by Dr. Harry C. Dietz) by applying a MS-550D MicroScan transducer probe with 40 MHz (broadband with 22-55 MHz). Tumor localization was confirmed using the cranial tip of the left kidney and the caudal tip of the spleen as anatomic landmarks (Ota et al. (2013) Target. Oncol. 8:145-151; Tuli et al. (2012) Translat. Oncol. 5:77-84). […]

MiaPaCa-2 cells = assay: Matrigel invasion assay, MiaPaCa-2; format: cell-based, human; details: sub-lethal concentrations, 48 hrs.
Method: (§1) The ability of 3-BrPA to inhibit tumor invasion was studied using a matrigel invasion assay, as well as gelatin zymography (Hu and Beeton (2010) J. Visual. Exp. 45:2445; Scott et al. (2011) J. Visual. Exp. 58:e3525). For the matrigel invasion assays, a coating buffer containing 0.01 M Tris and 0.7% sodium chloride was prepared and used to dilute the matrigel basement membrane (BD Biosciences, #356234) to 300 ug/ml. Subsequently, Boyden chambers (Transwell, Corning; 6.5 mm-diameter, 8 um pore size) were coated with 100 μl matrigel solution and stored at 37° C. for 2 hrs. to allow for gelatination. Approximately 7.5×10^4 cells were resuspended in 500 μl FBS-free medium and plated into the upper chamber of the insert, which was then placed into a 24-well plate containing […] FBS-containing medium. After overnight incubation at 37° C., various amounts of 3-BrPA dissolved in PBS were added to the upper chamber. Fourty-eight hours later, non-invasive cells were removed from the matrigel with a cotton swab. Invaded cells adherent to the bottom side of the permeable insert were fixed and stained with the Diff Quik Stain Kit (Polysciences Inc.). […] Invasion of cells was quantified by measuring the area of stained cells after treatment compared to untreated samples at 10× magnification.

Suit-2 cells [2] = assay: Matrigel invasion assay, Suit-2; format: cell-based, human; details: sub-lethal concentrations, 72 hrs.
Method: as §1

[3] = Comparative dose escalation studies in non-tumor-bearing animals; format: in vivo, mice; details: after a single injection
Method: The anti-cancer efficacy of systemically delivered β-CD-3-BrPA was tested using a xenograft model of human pancreatic cancer in athymic nude mice. Prior to choosing the therapeutic dose for more detailed studies, comparative dose escalation studies in non-tumor-bearing animals were performed for both β-CD-3-BrPA and free 3-BrPA. […] animals with orthotopically-implanted and BLI- and USI-confirmed MiaPaCa-2 tumors were then randomized to receive intraperitoneal (i.p.) injections of β-CD-3-BrPA (N=21), gemcitabine (N=7), or β-CD (N=7). An additional group of animals with orthotopic implants (N=7) was treated with free 3-BrPA. […] At the end of the experiment (Day 28), only 2/7 animals (28%) treated with the free drug were still alive (FIG. 12, Panel C). […] After four weeks of treatment, a comparison of BLI signal intensity between the groups was performed. […] After achieving this endpoint, animals were sacrificed and tumors were harvested for further analysis. All animals were subjected to necropsies and organs (brain, heart, lungs, bowel, liver, and kidneys) were harvested for the analysis of potential tissue damage.

[4] = test system: matrix-metalloproteinase 9 (MMP-9); assay: MMP-9 secretion by gelatin zymography and immunoblotting, Suit-2; format: cell-based, human; details: 24 hrs., dose that did not induce apoptosis or reduce cell viability
Method: (§2) Zymography assays were performed to determine the activity of secreted MMP-9. Accordingly, 4×10^6 Suit-2 cells and 2.5×10^6 lucMiaPaCa-2 cells were seeded in 75 cm^2-flasks and incubated overnight at 37° C. under normoxic conditions. The following day, fresh FBS-free medium containing different concentrations of 3-BrPA was added and cells were incubated for an additional 24 hrs. Subsequently, supernatants were collected, filtered, and the final protein concentrations were determined using the 2D Quant Kit (GE Healthcare). After adjustment for concentration, each sample was loaded onto two 10% gelatin zymography gels (Novex, Invitrogen). Following electrophoresis, proteins in one of the two gels were renaturated and enzymatic digestion was allowed overnight at 37° C. in a developing buffer. The gel was stained with 4 parts 0.1% Coomassie Brilliant Blue in 1 part 100% methanol for 24 hrs. and washed with distilled (DI) water until digested areas were detectable as white bands. Western Blot analysis was performed using the duplicate gel. Proteins were blotted onto a PVDF-Membrane and blocked using 5% skimmed milk in 1×TBS and 0.1% Tween in DI (TBST). […] The HRP provided an […] signal (ECL Kit, GE Healthcare), which was analyzed with ImageJ 1.46r software (Wayne Rasband, National Institute of Health) and used to quantify signal intensity by comparing line integrals.

[5] = test system: subcutaneous pancreatic cancer xenografts; details: 5 mg/kg, twice per week, systemic; cited from earlier work
[6] = in vivo, after systemic administration; cited from earlier work
[7] = test system: matrix-metalloproteinase 9 (MMP-9); assay: MMP-9 secretion by gelatin zymography and immunoblotting, MiaPaCa-2; format: cell-based, human; details: 24 hrs., dose that did not induce apoptosis or reduce cell viability
Method: as §2

Suit-2 cells [8] = assay: Monolayer cell culture viability assay (CellTiter-Glo), Suit-2; format: cell-based; details: Homo sapiens, normoxic, 72 hrs. exposure, barely achieved
Method: (§3) Two human pancreatic adenocarcinoma cell lines, lucMiaPaCa-2 (stably transfected with the luciferase-aminoglycoside phosphotransferase fusion gene, kindly provided by Dr. Phuoc T. Tran) and Suit-2 (kindly provided by Dr. Shinichi Ota, Japan) were cultured in RPMI or MEM media, respectively, both supplemented with 10% FBS and 1% Penicillin-Streptomycin. The effects of different drugs on cell viability were determined by quantifying intracellular adenosine triphosphate (ATP) levels using a luminescence-based kit (CellTiter-Glo, Promega) and a multilable 96-well plate (Costar). The accuracy and reproducibility of viability measurements using this luminiscence-based kit in lucMiaPaCa-2 cells was confirmed using the Dual-Reporter assay kit (Promega). In brief, 5×10^3 cells were seeded in triplicate and incubated for 72 hrs. under normoxic or hypoxic (1% O2-level, balanced with CO2 and nitrogen within a controlled atmosphere chamber) conditions. Indicated amounts of free 3-BrPA, 1:1-β-CD-3-BrPA or β-CD as a control were dissolved in PBS and added to the medium for 24 hrs. of treatment. For the experiments with gemcitabine, cells were incubated for 24 hrs. prior to a 72 hrs. exposure to the drug. Cell viability was determined following the manufacturer's protocol.

lucMiaPaCa-2 cells = assay: Monolayer cell culture viability assay (CellTiter-Glo), normoxic or hypoxic, lucMiaPaCa-2; format: cell-based; details: Homo sapiens; normoxic, 72 hrs. exposure; barely achieved
Method: as §3

SMILES: O=C(O)C(=O)CBr [3-BrPA, 3-bromopyruvate]
- animals died before the acquisition of the first follow-up BLI ([1]; daily i.p. 5 mg/kg in 500 μl saline): 3/7
- loss of animals at the end of the experiment (treatment-related toxicity, Kaplan-Meier) ([1]; daily i.p. 5 mg/kg, 28 days): 5/7
- animals still alive at the end of the experiment ([1]; daily i.p. 5 mg/kg, Day 28): 2/7
- drug concentration showing a reduction in invasion (as low as) (MiaPaCa-2 cells): 12.5 µM
- drug concentration showing a reduction in invasion (as low as) (Suit-2 cells [2]): 12.5 µM
- median lethal dose (LD50) [3]: 10 mg/kg
- concentration at which marked reduction in the secretion of MMP-9 begins [4]: 6.25 µM
- efficacy of 3-BrPA alone [5]: did not report any significant efficacy
- time of inactivation through interaction with serum proteins (as early as) [6]: 2 to 3 min
- concentration at which marked reduction in the secretion of MMP-9 begins [7]: 6.25 µM

SMILES: Nc1ccn([C@@H]2O[C@H](CO)[C@@H](O)C2(F)F)c(=O)n1 [gemcitabine, gemcitabine hydrochloride salt]
- IC50 (Suit-2 cells [8]): 100 nM
- BLI signal increase as compared to baseline ([1]; after four weeks of treatment): 60 fold
- IC50 (lucMiaPaCa-2 cells): 100 nM
